For assay [1], the system named is LPS-activated J774A.1 cells. Put plainly: NLRP3 and proIL-1β expression by Western blot. It is filed as cell-based, mouse. Particulars: J774A.1, 1-40 µM 30 min before LPS 6 h. The procedure: (§1) Cells were washed twice with ice-cold phosphate-buffered saline (PBS) and lysed on ice for 5 min with lysis buffer (20 mM Tris-HCl, pH 7.5, 150 mM NaCl, 1 mM Na 2EDTA, 1 mM EGTA, 1% Triton X-100, 2.5 mM sodium pyrophosphate, 1 mM beta-glycerophosphate, 1 mM Na 3VO4, 1 µg/ml of leupeptin, 1 mM PMSF, protease inhibitor cocktail). The lysate was then centrifuged at 12,000 x g at 4 °C for 10 min and the pellet discarded. […]
Figure 4 Effect of compound 1h on NLRP3 inflammasome activation in LPS+ATP-activated J774A.1 macrophages. (A) J774A.1 macrophages (1 × 10^6/ml; 1 ml) or (B) peritoneal macrophages (1 × 10^5/ml; 1 ml) were incubated with 10-40 µM compound 1h or DMSO for 30 min, then LPS (1 µg/ml) was added and incubation continued for 5.5 h, then the cells were stimulated with ATP (5 mM) for an additional 30 min, then IL-1β in the culture medium was measured by ELISA (A, upper panel; B) and levels of active caspase-1 (p10) (A, lower panel) measured by Western blotting. […] In (E), J774A.1 macrophages (1 × 10^6/ml; 1 ml) were incubated for 30 min with DMSO or 1-40 µM compound 1h, then LPS (1 µg/ml) was added and incubation continued for 6 h, then expression of NLRP3 and proIL-1β was measured by Western blotting. […]
Background: In western blotting, separated proteins are transferred to a membrane and probed.

In assay [2] the test system is LPS-activated RAW 264.7 macrophages. Put plainly: MAPK (ERK1/2, JNK1/2, p38) phosphorylation by Western blot. It is filed as cell-based, murine. Particulars: RAW 264.7, 20 µM 30 min, LPS 1 µg/ml 0-60 min. The procedure: as §1
Figure 5 Effect of compound 1h on ROS production and MAPK phosphorylation in LPS-activated macrophages. In (A), RAW 264.7 macrophages (5 × 10^5/ml; 1 ml) were incubated for 30 min with compound 1h (20 µM), N-acetyl cysteine (NAC; 10 mM), or DMSO (vehicle), then 2’, 7’-dichlorofluorescein diacetate (2 µM) was added for 30 min, followed by LPS (1 µg/ml) stimulation for the indicated time, then ROS levels were measured by detection of the mean fluorescence intensity (MFI) of the fluorophore carboxyl-DCF and expressing this value relative to that at time zero. In (B), RAW 264.7 macrophages (5 × 10^5/ml; 1 ml) were incubated for 30 min with compound 1h (20 µM) or DMSO, then LPS (1 µg/ml) was added and incubation continued for 0-60 min, then phosphorylation of ERK1/2, JNK1/2, and p38 was analyzed by Western blotting and expressed relative to actin expression and as a fold increase compared to the control group at 0 time. […]

As to `O=c1cc(O)cc(/C=C/C=C/C=C/C=C/c2[nH]ccc2Cl)o1` [compound 1h], in assay [1], the “LPS-induced proIL-1β expression” value is listed as “inhibited LPS-induced proIL-1β expression in a dose-dependent fashion” and the NLRP3 protein expression result was “increased NLRP3 expression”. Further, the “Phosphorylation of ERK1/2, JNK1/2 and p38” value in assay [2] is listed as “inhibited phosphorylation of all 3 MAPKs”.

The record behind these values is publication PMC3792051, “Polyenylpyrrole Derivatives Inhibit NLRP3 Inflammasome Activation and Inflammatory Mediator Expression by Reducing Reactive Oxygen Species Production and Mitogen-Activated Protein Kinase Activation” (PLoS ONE, 2013).
